Molecules are shown by their SMILES. Calls of active or inactive are those of the source. No cut-off for these calls is given here.

This note sets out measurements from ChEMBL document CHEMBL4834443, “Identification of bioactive compounds from mulberry enhancing glucose-stimulated insulin secretion” (Bioorg Med Chem Lett, 2021).

Series [1] has as its system INS1. Nature of the series: Cytotoxicity against rat INS1 cells assessed as cell viability at 1 to 10 uM measured after 24 hrs by MTT assay. It is filed as cell-based. The following applies: ins1, 24 h, dose 1-10 µM. For orientation: Formazan colour is commonly taken as a measure of viable cells.
The subject of series [2] is INS1. Nature of the series: Cytotoxicity against rat INS1 cells assessed as cell viability at 10 uM measured after 24 hrs by MTT assay. The conditions noted are these: ins1, 24 h. It is filed as cell-based.
Series [3] concerns INS1. In words: Stimulation of glucose stimulated insulin secretion in rat INS1 cells assessed as glucose stimulation index at 5 uM in presence of glucose measured after 1 hr. It is filed as functional.
The subject of series [4] is INS1. Nature of the series: Stimulation of glucose stimulated insulin secretion in rat INS1 cells assessed as glucose stimulation index at 2.5 uM in presence of glucose measured after 1 hr. It is filed as functional.
Series [5] relates to INS1. In words: Induction of insulin secretion in rat INS1 cells assessed as increase in IRS-2 expression at 5 uM measured after 24 hrs by western blot assay. It is filed as functional, cell-based.
Series [6] relates to INS1. In words: Induction of insulin secretion in rat INS1 cells assessed as increase in phosphorylation of IRS 2 at Ser 731 at 5 uM measured after 24 hrs by western blot assay. It is filed as functional, cell-based.
For series [7], the system named is INS1. In words: Induction of insulin secretion in rat INS1 cells assessed as increase in phosphorylation of PI3K at 5 uM measured after 24 hrs by western blot assay. It is filed as functional, cell-based. Background: In western blotting, separated proteins are transferred to a membrane and probed.
Series [8] has as its system INS1. Nature of the series: Induction of insulin secretion in rat INS1 cells assessed as increase in PDX-1 expression at 5 uM measured after 24 hrs by western blot assay. It is filed as functional, cell-based.
Series [9] concerns INS1. In words: Induction of insulin secretion in rat INS1 cells assessed as increase in AKT expression at 5 uM measured after 24 hrs by western blot assay. It is filed as functional, cell-based.
Series [10] relates to INS1. Nature of the series: Induction of insulin secretion in rat INS1 cells assessed as increase in PI3K expression at 5 uM measured after 24 hrs by western blot assay. It is filed as functional, cell-based.
Series [11] has as its system INS1. Nature of the series: Induction of insulin secretion in rat INS1 cells assessed as increase in phosphorylation of AKT at Ser 473 at 5 uM measured after 24 hrs by western blot assay. It is filed as functional, cell-based.
In series [12] the test system is INS1. Nature of the series: Induction of insulin secretion in rat INS1 cells assessed as increase in phosphorylation of AKT at Ser 473 at 2.5 uM measured after 24 hrs by western blot assay. It is filed as functional, cell-based.
Series [13] deals with INS1. In words: Induction of insulin secretion in rat INS1 cells assessed as increase in phosphorylation of PI3K at 2.5 uM measured after 24 hrs by western blot assay. It is filed as functional, cell-based.
Series [14] has as its system INS1. Nature of the series: Induction of insulin secretion in rat INS1 cells assessed as increase in PDX-1 expression at 2.5 uM measured after 24 hrs by western blot assay. It is filed as functional, cell-based.
Series [15] relates to INS1. Nature of the series: Induction of insulin secretion in rat INS1 cells assessed as increase in phosphorylation of IRS 2 at Ser 731 at 2.5 uM measured after 24 hrs by western blot assay. It is filed as functional, cell-based.
The test system of series [16] is INS1. Nature of the series: Induction of insulin secretion in rat INS1 cells assessed as increase in IRS-2 expression at 2.5 uM measured after 24 hrs by western blot assay. It is filed as functional, cell-based.
In series [17] the test system is INS1. Nature of the series: Induction of insulin secretion in rat INS1 cells assessed as increase in PI3K expression at 2.5 uM measured after 24 hrs by western blot assay. It is filed as functional, cell-based.
For series [18], the system named is INS1. Nature of the series: Induction of insulin secretion in rat INS1 cells assessed as increase in AKT expression at 2.5 uM measured after 24 hrs by western blot assay. It is filed as functional, cell-based.

As to `O=Cc1coc2ccccc12`, the Activity entry in the series on INS1 [1] was “Non-Toxic”.
The same measure, in the same setting: then `C[C@@H](C(=O)O)[C@H]1CCO[C@]1(C)O`, with “Non-Toxic”.
On to `Cc1ccc(S(=O)(=O)NC(=O)NN2CC3CCCC3C2)cc1` (configuration not stated) [GLICLAZIDE], for which the Activity result in the series with INS1 [2] is recorded as “Toxic”. The Activity_index worked out at 3.47 with INS1 [3] and 2.46 in the series with INS1 [4].
Turning to `COC(=O)[C@@H]1CCC(=O)N1`, the Activity entry with INS1 [1] was “Non-Toxic”.
`c1ccc2[nH]ccc2c1` [INDOLE]: the outcome with INS1 [5], in the series on INS1 [6], with INS1 [7], with INS1 [8], in the series with INS1 [9] and in the series with INS1 [10] was Active. Further, in the series on INS1 [11], the outcome was Active. Moreover, the Activity_index in the series with INS1 [3] came out at 7.72; with INS1 [4], 3.31. Moreover, the Activity result in the series on INS1 [1] is listed as “Non-Toxic”.
As for `CC1(C)C[C@H](O)C[C@@]2(C)OC(=O)C=C12` [LOLIOLIDE], the Activity entry in the series with INS1 [1] is given as “Non-Toxic”.
With `O=C1CC[C@@H](O)N1`, the outcome in the series with INS1 [12], in the series on INS1 [13], in the series on INS1 [14], in the series with INS1 [15], in the series on INS1 [16] and in the series with INS1 [17] was Active. The result with INS1 [18] was Active. In addition, the Activity_index in the series with INS1 [3] is 11.31; in the series on INS1 [4] it was 6.57. Further, the Activity entry in the series with INS1 [1] is recorded as “Non-Toxic”.
